Source: PubChem BioAssay AID256 (DTP/NCI, 2004)
Inconclusive results and toxic doses are left out. The calls were made as follows: active = survival T/C of 150% or more; inactive = T/C below 125% in these data.

Tested on: CD2F1 mice, L1210 leukemia ip, survival T/C
Test: NCI In Vivo Anticancer Drug Screen. Data for tumor model L1210 Leukemia (intraperitoneal) in CD2F1 (CDF1) mice
Conditions: higher = longer survival
In short: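 Ratio T/C, where T is the treated-group value and C the vehicle-dosed control value, from mice implanted with a transplantable tumor.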

[1] = endpoint: mean survival time, dose: 100.0 mg/kg/injection, schedule: Q01DX001 (ip), vehicle: saline
[2] = endpoint: mean survival time, dose: 200.0 mg/kg/injection, schedule: Q01DX001 (ip), vehicle: saline
[3] = endpoint: mean survival time, dose: 100.0 mg/kg/injection, schedule: Q04DX003 (ip), vehicle: saline with Tween-80
[4] = endpoint: mean survival time, dose: 200.0 mg/kg/injection, schedule: Q04DX003 (ip), vehicle: saline with Tween-80
[5] = endpoint: mean survival time, dose: 100.0 mg/kg/injection, schedule: Q01DX009 (ip), vehicle: saline with Tween-80
[6] = endpoint: mean survival time, dose: 200.0 mg/kg/injection, schedule: Q01DX009 (ip), vehicle: saline with Tween-80
[7] = endpoint: mean survival time, dose: 400.0 mg/kg/injection, schedule: Q01DX009 (ip), vehicle: saline with Tween-80
[8] = endpoint: mean survival time, dose: 100.0 mg/kg/injection, schedule: Q04DX003 (ip), vehicle: saline
[9] = endpoint: mean survival time, dose: 200.0 mg/kg/injection, schedule: Q04DX003 (ip), vehicle: saline
[10] = endpoint: mean survival time, dose: 400.0 mg/kg/injection, schedule: Q04DX003 (ip), vehicle: saline
[11] = endpoint: mean survival time, dose: 400.0 mg/kg/injection, schedule: Q04DX003 (ip), vehicle: saline with Tween-80

Measured: T/C

Cn1c(=O)c2c(ncn2CN2CCN(Cn3cnc4c3c(=O)n(C)c(=O)n4C)CC2)n(C)c1=O
inactive: [1] 94 % of control | [2] 97 % of control

CCC(CO)C(C)C (stereo unspecified)
inactive: [3] 97 % of control | [4] 100 % of control

NC(=O)NC(=O)c1cccc([N+](=O)[O-])c1
inactive: [5] 104 % of control | [3] 97 % of control | [6] 97 % of control | [4] 94 % of control

N#C/C(=C\c1cc(Br)cc(Br)c1O)c1ccc([N+](=O)[O-])cc1
inactive: [5] 103 % of control | [6] 96 % of control | [7] 94 % of control

Cc1cc(C)c(SC2c3ccccc3-c3ccccc32)c(C)c1
inactive: [1] 94 % of control | [8] 98 % of control | [2] 95 % of control | [9] 90 % of control | endpoint: mean survival time, dose: 400.0 mg/kg/injection, schedule: Q01DX001 (ip), vehicle: saline 94 % of control | [10] 97 % of control

C[Si]1(C)N(c2ccccc2)[Si](C)(C)N(c2ccccc2)[Si](C)(C)N1c1ccccc1
inactive: [5] 105 % of control | [3] 105 % of control | [6] 107 % of control | [4] 94 % of control | [7] 106 % of control | [11] 93 % of control

CN(N=O)C(=O)NC1C(CO)OC(n2ccc(=O)[nH]c2=O)C1O (stereo unspecified)
inactive: endpoint: mean survival time, dose: 13.0 mg/kg/injection, schedule: Q01DX001 (ip), vehicle: saline 105 % of control | endpoint: mean survival time, dose: 20.0 mg/kg/injection, schedule: Q01DX001 (ip), vehicle: saline 107 % of control | endpoint: mean survival time, dose: 30.0 mg/kg/injection, schedule: Q01DX001 (ip), vehicle: saline 110 % of control | endpoint: mean survival time, dose: 44.0 mg/kg/injection, schedule: Q01DX001 (ip), vehicle: saline 111 % of control | endpoint: mean survival time, dose: 67.0 mg/kg/injection, schedule: Q01DX001 (ip), vehicle: saline 107 % of control | [1] 122 % of control | endpoint: mean survival time, dose: 150.0 mg/kg/injection, schedule: Q01DX001 (ip), vehicle: saline 121 % of control

CCOn1nc(-c2ccccc2)oc1=O
inactive: endpoint: mean survival time, dose: 100.0 mg/kg/injection, schedule: Q04DX003 (ip), vehicle: other 96 % of control | endpoint: mean survival time, dose: 200.0 mg/kg/injection, schedule: Q04DX003 (ip), vehicle: other 93 % of control | endpoint: mean survival time, dose: 400.0 mg/kg/injection, schedule: Q04DX003 (ip), vehicle: other 116 % of control

O=C(c1cccnc1)C1Cc2ccccc2C1=O (stereo unspecified)
inactive: endpoint: mean survival time, dose: 100.0 mg/kg/injection, schedule: Q01DX009 (ip), vehicle: saline sonified 102 % of control | endpoint: mean survival time, dose: 200.0 mg/kg/injection, schedule: Q01DX009 (ip), vehicle: saline sonified 96 % of control | endpoint: mean survival time, dose: 400.0 mg/kg/injection, schedule: Q01DX009 (ip), vehicle: saline sonified 94 % of control

COc1cccc2c1[C@H]1CO[C@H]3C4C[C@H](C(=O)O)C([C@@H](C2)N13)N4C (stereo partly specified)
inactive: endpoint: median survival time, dose: 0.31 mg/kg/injection, schedule: Q01DX005 (ip), vehicle: water 90 % of control | endpoint: median survival time, dose: 0.62 mg/kg/injection, schedule: Q01DX005 (ip), vehicle: water 101 % of control | endpoint: median survival time, dose: 1.25 mg/kg/injection, schedule: Q01DX005 (ip), vehicle: water 102 % of control | endpoint: median survival time, dose: 2.5 mg/kg/injection, schedule: Q01DX005 (ip), vehicle: water 112 % of control | endpoint: median survival time, dose: 5.0 mg/kg/injection, schedule: Q01DX005 (ip), vehicle: water 121 % of control

CSc1c(Cl)cc(Cl)cc1C(=O)O
inactive: [3] 94 % of control | [4] 91 % of control | [11] 96 % of control

O=C(OCCOCCOC(=O)N1CCOCC1)N1CCOCC1
inactive: [8] 100 % of control | [9] 102 % of control | [10] 96 % of control

CN(/N=C/c1ccc([N+](=O)[O-])cc1)c1ccccc1
inactive: endpoint: mean survival time, dose: 100.0 mg/kg/injection, schedule: Q01DX001 (ip), vehicle: saline with Tween-80 100 % of control | endpoint: mean survival time, dose: 200.0 mg/kg/injection, schedule: Q01DX001 (ip), vehicle: saline with Tween-80 106 % of control | endpoint: mean survival time, dose: 400.0 mg/kg/injection, schedule: Q01DX001 (ip), vehicle: saline with Tween-80 91 % of control

Cc1oc2ccc(NS(=O)(=O)c3ccccc3)cc2c1C(=O)O
inactive: [3] 97 % of control
